System: MV-4-11 cells
Experiment: Gene expression microarray analysis (Affymetrix PrimeView) and GSEA
Assay type: cell-based, human
Set-up: RFU PODN (11730768_x_at) / Fold change /veh PODN (11730768_x_at) / RFU LINC00158 (11744669_a_at) / Fold change /veh LINC00158 (11744669_a_at) / RFU DUSP10 (11751237_a_at) / Fold change /veh DUSP10 (11751237_a_at) / RFU ID3 (11757404_x_at) / Fold change /veh ID3 (11757404_x_at) / RFU PLEKHG5 (11737974_s_at) / Fold change /veh PLEKHG5 (11737974_s_at) / RFU LRRC4B (11730491_at) / Fold change /veh LRRC4B (11730491_at) / RFU GIMAP4 (11747438_a_at) / Fold change /veh GIMAP4 (11747438_a_at) / RFU KRT8 (11758183_x_at) / Fold change /veh KRT8 (11758183_x_at) / RFU CNN1 (11734310_a_at) / Fold change /veh CNN1 (11734310_a_at) / RFU VPS37D (11726825_at) / Fold change /veh VPS37D (11726825_at) / RFU C10orf10 (11716522_x_at) / Fold change /veh C10orf10 (11716522_x_at) / RFU KIR2DL2 /// KIR2DL4 /// KIR2DL5A /// KIR2DL5B /// KIR2DS1 /// KIR2DS2 /// KIR2DS3 /// KIR2DS4 /// KIR3DL3 /// KIR3DL3 /// KIR3DS1 (11738374_at) / Fold change /veh KIR2DL2 /// KIR2DL4 /// KIR2DL5A /// KIR2DL5B /// KIR2DS1 /// KIR2DS2 /// KIR2DS3 /// KIR2DS4 /// KIR3DL3 /// KIR3DL3 /// KIR3DS1 (11738374_at) / RFU C1QL1 (11718748_at) / Fold change /veh C1QL1 (11718748_at) / RFU TMPRSS4 (11747572_a_at) / Fold change /veh TMPRSS4 (11747572_a_at) / RFU HAMP (11756126_x_at) / Fold change /veh HAMP (11756126_x_at) / RFU RNFT2 (11725882_a_at) / Fold change /veh RNFT2 (11725882_a_at) / RFU NR4A2 (11747474_a_at) / Fold change /veh NR4A2 (11747474_a_at) / RFU ABCC12 (11746883_a_at) / Fold change /veh ABCC12 (11746883_a_at) / RFU TMEM136 (11760407_x_at) / Fold change /veh TMEM136 (11760407_x_at) / RFU CLDN22 /// WWC2 (11732394_at) / Fold change /veh CLDN22 /// WWC2 (11732394_at) / RFU HLA-DPB1 (11760878_x_at) / Fold change /veh HLA-DPB1 (11760878_x_at) / RFU SPINT1 (11716480_a_at) / Fold change /veh SPINT1 (11716480_a_at) / RFU GAP43 (11754022_s_at) / Fold change /veh GAP43 (11754022_s_at) / RFU A4GNT (11735810_at) / Fold change /veh A4GNT (11735810_at) / RFU PRB3 (11715151_x_at) / Fold change /veh PRB3 (11715151_x_at) / RFU TUBB4B (11761932_at) / Fold change /veh TUBB4B (11761932_at) / RFU CAPN14 (11732068_a_at) / Fold change /veh CAPN14 (11732068_a_at) / RFU TMCC2 (11721928_a_at) / Fold change /veh TMCC2 (11721928_a_at) / RFU IRGQ (11745062_a_at) / Fold change /veh IRGQ (11745062_a_at) / RFU FAM174B (11720279_a_at) / Fold change /veh FAM174B (11720279_a_at) / RFU TMPRSS4 (11748680_a_at) / Fold change /veh TMPRSS4 (11748680_a_at) / RFU FAM212B (11763350_a_at) / Fold change /veh FAM212B (11763350_a_at) / RFU PLEKHG5 (11743358_a_at) / Fold change /veh PLEKHG5 (11743358_a_at) / RFU ZSCAN30 (11745921_a_at) / Fold change /veh ZSCAN30 (11745921_a_at) / RFU CMKLR1 (11741424_a_at) / Fold change /veh CMKLR1 (11741424_a_at) / RFU LOC101060620 /// MAPK8IP1 (11723275_at) / Fold change /veh LOC101060620 /// MAPK8IP1 (11723275_at) / RFU SPTSSB (11747773_x_at) / Fold change /veh SPTSSB (11747773_x_at) / RFU PRSS12 (11739890_at) / Fold change /veh PRSS12 (11739890_at) / RFU BIN1 (11741810_x_at) / Fold change /veh BIN1 (11741810_x_at) / RFU WNT11 (11732464_a_at) / Fold change /veh WNT11 (11732464_a_at) / RFU C10orf10 (11716521_a_at) / Fold change /veh C10orf10 (11716521_a_at) / RFU C5orf56 (11738089_at) / Fold change /veh C5orf56 (11738089_at) / RFU CYB561 (11721691_x_at) / Fold change /veh CYB561 (11721691_x_at) / RFU ANKRD19P (11752326_a_at) / Fold change /veh ANKRD19P (11752326_a_at) / RFU OR2T12 /// OR2T33 /// OR2T8 (11738714_s_at) / Fold change /veh OR2T12 /// OR2T33 /// OR2T8 (11738714_s_at) / RFU VCAN (11748164_a_at) / Fold change /veh VCAN (11748164_a_at) / RFU JSRP1 (11732532_at) / Fold change /veh JSRP1 (11732532_at) / RFU KRTAP10-11 (11738290_x_at) / Fold change /veh KRTAP10-11 (11738290_x_at) / RFU MYO3A (11730013_a_at) / Fold change /veh MYO3A (11730013_a_at) / RFU EBF3 (11725865_a_at) / Fold change /veh EBF3 (11725865_a_at) / RFU CAMK2N1 (11719241_x_at) / Fold change /veh CAMK2N1 (11719241_x_at) / RFU C5orf56 (11738088_a_at) / Fold change /veh C5orf56 (11738088_a_at) / RFU OLFML3 (11715873_a_at) / Fold change /veh OLFML3 (11715873_a_at) / RFU LOC100653217 /// NTM (11731650_a_at) / Fold change /veh LOC100653217 /// NTM (11731650_a_at) / RFU MAPK11 (11762145_a_at) / Fold change /veh MAPK11 (11762145_a_at) / RFU FIZ1 (11724087_x_at) / Fold change /veh FIZ1 (11724087_x_at) / RFU OASL (11726364_x_at) / Fold change /veh OASL (11726364_x_at) / RFU SOX15 (11748057_x_at) / Fold change /veh SOX15 (11748057_x_at) / RFU CD79A (11719716_a_at) / Fold change /veh CD79A (11719716_a_at) / RFU HIST1H1D (11736915_at) / Fold change /veh HIST1H1D (11736915_at) / RFU CASKIN2 (11723855_a_at) / Fold change /veh CASKIN2 (11723855_a_at) / RFU LOC730098 (11760151_x_at) / Fold change /veh LOC730098 (11760151_x_at) / RFU OR4N2 (11742367_at) / Fold change /veh OR4N2 (11742367_at) / RFU PRRT2 (11749266_a_at) / Fold change /veh PRRT2 (11749266_a_at) / RFU SNX32 (11753110_a_at) / Fold change /veh SNX32 (11753110_a_at) / RFU CDHR5 (11726645_a_at) / Fold change /veh CDHR5 (11726645_a_at) / RFU RCAN1 (11760418_a_at) / Fold change /veh RCAN1 (11760418_a_at) / RFU FAM167A (11723789_a_at) / Fold change /veh FAM167A (11723789_a_at) / RFU FAM26E (11764081_at) / Fold change /veh FAM26E (11764081_at) / RFU ISYNA1 (11749810_s_at) / Fold change /veh ISYNA1 (11749810_s_at) / RFU ACY1 (11761880_at) / Fold change /veh ACY1 (11761880_at) / RFU 11764098_at / Fold change /veh 11764098_at / RFU SAMD14 (11745864_x_at) / Fold change /veh SAMD14 (11745864_x_at) / RFU NPB (11741838_a_at) / Fold change /veh NPB (11741838_a_at) / RFU TMPRSS6 (11731388_a_at) / Fold change /veh TMPRSS6 (11731388_a_at) / RFU KRTAP10-2 (11738614_at) / Fold change /veh KRTAP10-2 (11738614_at) / RFU ARHGAP8 /// PRR5-ARHGAP8 (11727945_x_at) / Fold change /veh ARHGAP8 /// PRR5-ARHGAP8 (11727945_x_at) / RFU KRTAP5-7 /// NADSYN1 (11734609_at) / Fold change /veh KRTAP5-7 /// NADSYN1 (11734609_at) / RFU RASL12 (11751679_a_at) / Fold change /veh RASL12 (11751679_a_at) / RFU CDKN2B (11736163_a_at) / Fold change /veh CDKN2B (11736163_a_at) / RFU PRF1 (11729649_at) / Fold change /veh PRF1 (11729649_at) / RFU, ZNF638 /// ZNF638-IT1 / Fold change vs veh, ZNF638 /// ZNF638-IT1 / RFU, PANK3 / Fold change vs veh, PANK3 / RFU, SH3YL1 / Fold change vs veh, SH3YL1 / RFU, ZEB2 / Fold change vs veh, ZEB2 / RFU, NRIP1 / Fold change vs veh, NRIP1 / RFU, PTTG1IP / Fold change vs veh, PTTG1IP / RFU, CAPN2 / Fold change vs veh, CAPN2 / RFU, MED14 / Fold change vs veh, MED14 / RFU, SNORA58 / Fold change vs veh, SNORA58 / RFU, C1orf63 / Fold change vs veh, C1orf63 / RFU, LRRFIP1 / Fold change vs veh, LRRFIP1 / RFU, NDUFAF7 / Fold change vs veh, NDUFAF7 / RFU, SLC12A2 / Fold change vs veh, SLC12A2 / RFU, IBTK / Fold change vs veh, IBTK / RFU, ESF1 / Fold change vs veh, ESF1 / Fold change vs veh, TMEM50B / RFU, TAOK1 / Fold change vs veh, TAOK1 / RFU, ACBD3 / Fold change vs veh, ACBD3 / RFU, TMA16 / Fold change vs veh, TMA16 / RFU, RWDD3 / Fold change vs veh, RWDD3 / RFU, BCAT1 / Fold change vs veh, BCAT1 / RFU, EDEM3 / Fold change vs veh, EDEM3 / RFU, TMEM33 / Fold change vs veh, TMEM33 / RFU, WDR75 / Fold change vs veh, WDR75 / RFU, AHCTF1 / Fold change vs veh, AHCTF1 / RFU, TFRC / Fold change vs veh, TFRC / RFU, ZDHHC17 / Fold change vs veh, ZDHHC17 / RFU, NOM1 / Fold change vs veh, NOM1 / RFU, ARL8B / Fold change vs veh, ARL8B / RFU, ZBTB11 / Fold change vs veh, ZBTB11 / RFU, TAMM41 / Fold change vs veh, TAMM41 / RFU, KIAA1704 /// LOC100996395 / Fold change vs veh, KIAA1704 /// LOC100996395 / RFU, ING1 / Fold change vs veh, ING1 / RFU, TRMT61B / Fold change vs veh, TRMT61B / RFU, FUBP3 / Fold change vs veh, FUBP3 / RFU, TP53 / Fold change vs veh, TP53 / RFU, TNKS2 / Fold change vs veh, TNKS2 / RFU, ZFP14 / Fold change vs veh, ZFP14 / RFU, ACTR2 / Fold change vs veh, ACTR2 / RFU, PPP3R1 / Fold change vs veh, PPP3R1 / RFU, PIK3R1 / Fold change vs veh, PIK3R1 / RFU, HNRNPA1 / Fold change vs veh, HNRNPA1 / RFU, RNF170 / Fold change vs veh, RNF170 / RFU, ZNF28 / Fold change vs veh, ZNF28 / RFU, RNGTT / Fold change vs veh, RNGTT / RFU, OGT / Fold change vs veh, OGT / RFU, BRD1 / Fold change vs veh, BRD1 / RFU, MARS / Fold change vs veh, MARS / RFU, ZNF655 / Fold change vs veh, ZNF655 / RFU, FAHD1 / Fold change vs veh, FAHD1 / RFU, BDP1 / Fold change vs veh, BDP1 / RFU, LRRCC1 / Fold change vs veh, LRRCC1 / RFU, ARID1A / Fold change vs veh, ARID1A / RFU, ZNF146 / Fold change vs veh, ZNF146 / RFU, ZNF330 / Fold change vs veh, ZNF330 / RFU, GPN3 / Fold change vs veh, GPN3 / RFU, C9orf123 / Fold change vs veh, C9orf123 / RFU, N4BP2L2 / Fold change vs veh, N4BP2L2 / RFU, ARFIP1 / Fold change vs veh, ARFIP1 / RFU, FAM179B / Fold change vs veh, FAM179B / RFU, BCL10 / Fold change vs veh, BCL10 / RFU, UHRF1BP1L / Fold change vs veh, UHRF1BP1L / RFU, BET1 / Fold change vs veh, BET1 / RFU, CNOT2 / Fold change vs veh, CNOT2 / RFU, ZNF268 / Fold change vs veh, ZNF268 / Fold change vs veh, ZNF507 / RFU, DGCR2 / Fold change vs veh, DGCR2 / RFU, WDSUB1 / Fold change vs veh, WDSUB1 / Fold change vs veh, HSP90B1 /// MIR3652 / RFU, ADSS / Fold change vs veh, ADSS / RFU, GK / Fold change vs veh, GK / RFU, ZNF148 / Fold change vs veh, ZNF148 / RFU, TAF9 / Fold change vs veh, TAF9 / RFU, SLC1A5 / Fold change vs veh, SLC1A5 / RFU, SLMO2 / Fold change vs veh, SLMO2 / RFU, ABCC4 / Fold change vs veh, ABCC4 / RFU, LOC101060439 /// RAP1B / Fold change vs veh, LOC101060439 /// RAP1B / RFU, RFX7 / Fold change vs veh, RFX7 / RFU, GTPBP10 / Fold change vs veh, GTPBP10 / RFU, CNEP1R1 / Fold change vs veh, CNEP1R1 / RFU, BIVM-ERCC5 /// ERCC5 / Fold change vs veh, BIVM-ERCC5 /// ERCC5 / RFU, ILF3 / Fold change vs veh, ILF3 / RFU 11762660_at / Fold change /veh 11762660_at / RFU VCAN (11757783_s_at) / Fold change /veh VCAN (11757783_s_at) / RFU DDX43 (11728927_at) / Fold change /veh DDX43 (11728927_at) / RFU KRT8 (11758188_x_at) / Fold change /veh KRT8 (11758188_x_at) / RFU NKD1 (11759106_at) / Fold change /veh NKD1 (11759106_at) / RFU SRD5A1 (11742802_a_at) / Fold change /veh SRD5A1 (11742802_a_at) / RFU TPSAB1 /// TPSB2 (11721975_s_at) / Fold change /veh TPSAB1 /// TPSB2 (11721975_s_at) / RFU GSTM3 (11746129_a_at) / Fold change /veh GSTM3 (11746129_a_at) / RFU IL23R (11737362_x_at) / Fold change /veh IL23R (11737362_x_at) / RFU TMEM51 (11727254_a_at) / Fold change /veh TMEM51 (11727254_a_at) / RFU PIWIL2 (11732686_x_at) / Fold change /veh PIWIL2 (11732686_x_at) / RFU ORM1 (11744905_x_at) / Fold change /veh ORM1 (11744905_x_at) / RFU CCDC152 (11743942_at) / Fold change /veh CCDC152 (11743942_at) / RFU ECM1 (11717891_a_at) / Fold change /veh ECM1 (11717891_a_at) / RFU IL23R (11748794_a_at) / Fold change /veh IL23R (11748794_a_at) / RFU TNFAIP8L3 (11732012_x_at) / Fold change /veh TNFAIP8L3 (11732012_x_at) / RFU MBOAT4 (11741988_at) / Fold change /veh MBOAT4 (11741988_at) / RFU 11764193_at / Fold change /veh 11764193_at / RFU TMEM53 (11763286_at) / Fold change /veh TMEM53 (11763286_at) / RFU MAGEB2 (11727129_at) / Fold change /veh MAGEB2 (11727129_at) / RFU TMEM200A (11744735_a_at) / Fold change /veh TMEM200A (11744735_a_at) / RFU CCDC152 (11751479_a_at) / Fold change /veh CCDC152 (11751479_a_at) / RFU FAM211A (11726209_a_at) / Fold change /veh FAM211A (11726209_a_at) / RFU RGS16 (11746705_a_at) / Fold change /veh RGS16 (11746705_a_at) / RFU VCAN (11755009_s_at) / Fold change /veh VCAN (11755009_s_at) / RFU RHOB (11743442_s_at) / Fold change /veh RHOB (11743442_s_at) / RFU RGS16 (11720943_a_at) / Fold change /veh RGS16 (11720943_a_at) / RFU RGS16 (11720944_at) / Fold change /veh RGS16 (11720944_at) / RFU, VPS4B / Fold change vs veh, VPS4B / RFU, CREB1 / Fold change vs veh, CREB1 / RFU, DNAJC13 / Fold change vs veh, DNAJC13 / RFU, GNAQ / Fold change vs veh, GNAQ / RFU, CDK5R1 / Fold change vs veh, CDK5R1 / RFU, ZRANB3 / Fold change vs veh, ZRANB3 / RFU, CUL4A / Fold change vs veh, CUL4A / RFU, CCNY / Fold change vs veh, CCNY / RFU, UFL1 / Fold change vs veh, UFL1 / RFU, COG3 / Fold change vs veh, COG3 / RFU, DIAPH2 / Fold change vs veh, DIAPH2 / RFU, SKA2 / Fold change vs veh, SKA2 / RFU, AFF3 / Fold change vs veh, AFF3 / RFU, LMF1 / Fold change vs veh, LMF1 / RFU, IPO11 / Fold change vs veh, IPO11 / RFU, DFFB / Fold change vs veh, DFFB / RFU, FOXP1 / Fold change vs veh, FOXP1 / RFU, CARD8 / Fold change vs veh, CARD8 / RFU, STRN3 / Fold change vs veh, STRN3 / RFU, ADK / Fold change vs veh, ADK / RFU, RASSF2 / Fold change vs veh, RASSF2 / RFU, WIPF1 / Fold change vs veh, WIPF1 / RFU, LARP1B / Fold change vs veh, LARP1B / RFU, RASA1 / Fold change vs veh, RASA1 / RFU, RB1 / Fold change vs veh, RB1 / RFU, PPFIA1 / Fold change vs veh, PPFIA1 / RFU, MAT2A / Fold change vs veh, MAT2A / RFU, CCT5 / Fold change vs veh, CCT5 / RFU, WDR92 / Fold change vs veh, WDR92 / RFU, CUX1 / Fold change vs veh, CUX1 / RFU, TTC7A / Fold change vs veh, TTC7A / RFU, TMEM135 / Fold change vs veh, TMEM135 / RFU, DEPTOR / Fold change vs veh, DEPTOR / RFU, CPM / Fold change vs veh, CPM / RFU, DNAJB6 / Fold change vs veh, DNAJB6 / RFU, CACNA2D3 / Fold change vs veh, CACNA2D3 / RFU, DTX4 / Fold change vs veh, DTX4 / RFU, TFCP2 / Fold change vs veh, TFCP2 / RFU, GMCL1 /// GMCL1P1 / Fold change vs veh, GMCL1 /// GMCL1P1 / RFU, AEBP2 / Fold change vs veh, AEBP2 / RFU, SNHG1 /// SNORD22 /// SNORD25 /// SNORD26 /// SNORD27 /// SNORD28 /// SNORD29 /// SNORD31 / Fold change vs veh, SNHG1 /// SNORD22 /// SNORD25 /// SNORD26 /// SNORD27 /// SNORD28 /// SNORD29 /// SNORD31 / Fold change (Aza/veh), C12orf56 (ProbeSet 11735607_a_at) / Fold change (ACY-1035/veh), C12orf56 (ProbeSet 11735607_a_at) / Fold change (Aza/veh), FGFR1OP (ProbeSet 11751329_s_at) / Fold change (ACY-1035/veh), FGFR1OP (ProbeSet 11751329_s_at) / Fold change (Aza/veh), VPS36 (ProbeSet 11739960_a_at) / Fold change (ACY-1035/veh), VPS36 (ProbeSet 11739960_a_at) / RFU SYPL1 (11715823_x_at) / Fold change /veh SYPL1 (11715823_x_at) / RFU IGFBP7 (11715501_s_at) / Fold change /veh IGFBP7 (11715501_s_at) / RFU REEP3 (11722064_at) / Fold change /veh REEP3 (11722064_at) / RFU IGLL1 (11728026_x_at) / Fold change /veh IGLL1 (11728026_x_at): dose or concentration left out as unconfirmed
Settings: ProbeSet 11721611_a_at; LIST D

SMILES: Nc1ncn([C@@H]2O[C@H](CO)[C@@H](O)[C@H]2O)c(=O)n1 [azacitidine]
- RFU, IPO11: 64.89 RFU

Reference: paper PMC5218480 (PLoS ONE, 2017)
